Results taken from patent US10723778B2, “Variants of adrenomedullin and calcitonin gene-related peptide and methods of use” (The Board of Regents of the University of Oklahoma, priority 2015, dated 2020).
Where no end group is shown, it is not given here.

Tests used:
[1] = target: T1, membranes of SK-N-MC cells, which express the CGRP receptor (Homo sapiens, UniProt O60894+Q16602); conditions: read-out: IC50 reported for binding to membranes of SK-N-MC cells; cited from earlier work
T1 construct: membranes of SK-N-MC cells, which express the CGRP receptor; host or cells: SK-N-MC cell membranes (endogenous receptor)

[2] = target: T2, RAMP1-CLR ECD (CGRP); purified MBP-RAMP1 ECD-(GS)5-CLR ECD-H6 fusion protein (Homo sapiens, UniProt O60894+Q16602); test: Fluorescence polarization (FP) peptide binding competition assay, CGRP receptor ECD complex; conditions: for Receptor Selectivity (in words): CGRP vs AM1 receptor ECD complexes; for Receptor Selectivity (in words) / Receptor Selectivity, fold for CGRP: FP assay; for Ki: RAMP1-CLR ECD (CGRP) KI (nM), FP competition, FITC-AM W/W probe 7 nM, fusion protein 15 nM; for Receptor Selectivity, fold for CGRP: CGRP (RAMP1-CLR ECD) over AM1 (RAMP2-CLR ECD)
T2 construct: MBP-hRAMP1.24-111-(Gly-Ser)5-hCLR.29-144-H6; made in house; host or cells: E. coli
Procedure: Fluorescence polarization peptide binding assay. […] The reactions (50 μL) were incubated for 2 hours at room temperature to reach equilibrium, and the anisotropy was measured in black half-area 96-well plates using a BMG LABTECH's POLARstar® Omega plate reader (Ortenberg, Germany). The reaction buffer was 50 mM HEPES, pH 7.5, 150 mM NaCl, 0.5 mg/ml fatty acid-free BSA, 0.5 mM EDTA, 0.5 mM maltose. Ki values were calculated using nonlinear regression fitting of the competition curves to the exact analytical equations of Roehrl et al. (Biochemistry (2004) 43:16056-66) using GraphPad Prism 5.0 (GraphPad Software, San Diego Calif.).
(§1) The ability of the indicated peptides to displace a FITC-Ahx-AM(37-52)NH2 [S45W, Q50W] probe (7 nM) from purified MBP-RAMP1 ECD-(GS)5-CLR ECD-H6 fusion protein (15 nM) was assessed by fluorescence polarization (anisotropy). The reactions were incubated for 2 hours at room temperature to reach equilibrium, and the anisotropy was measured in black half-area 96-well plates using a BMG LABTECH's POLARstar® Omega plate reader (Ortenberg, Germany). The reaction buffer was 50 mM HEPES, pH 7.5, 150 mM NaCl, 0.5 mg/ml fatty acid-free BSA, 0.5 mM EDTA, 0.5 mM maltose. KI values were calculated using nonlinear regression fitting of the competition curves to the exact analytical equations of Roehrl et al. (Biochemistry (2004) 43:16056-66) using GraphPad Prism 5.0 (GraphPad Software, San Diego Calif.).
as §1, with “Single representative experiments conducted with duplicate samples are shown. Error bars are S.E.M. The ability” for “The ability”, “displace a FITC-Ahx-AM(37-52)NH2[S45W, Q50W] probe” for “displace a FITC-Ahx-AM(37-52)NH2 [S45W, Q50W] probe”
A fluorescence polarization/anisotropy (FP) peptide-binding assay was developed using N-terminally FITC-labeled AM(37-52) S45W/Q50W as the probe, hereafter “FITC-AM W/W.” The probe was custom synthesized and HPLC-purified by RS Synthesis. The large size difference between the MBP-RAMP ECD-CLR ECD fusion proteins (˜65 kDa) and the probe (˜2.5 kDa) ensures a significant anisotropy difference between bound and free states of the probe. […] Kd values for the probe at each of the tethered ECD fusion proteins were determined in equilibrium saturation binding experiments (data not shown), and KI values were determined for unlabeled peptides in equilibrium competition experiments (Table 1; FIGS. 2-5). The data were analyzed according to exact analytical equations using non-linear regression curve fitting in GraphPad Prism 5.0 (GraphPad Software) via user-defined equations.

RAMP2-CLR ECD = target: T3, RAMP2-CLR ECD (Homo sapiens, UniProt O60895+Q16602, L106R); test: AlphaLISA/AlphaScreen competition peptide binding assay, AM1 receptor ECD complex
T3 construct: MBP-hRAMP2.55-140 [L106R]-(Gly-Ser-Ala)3-hCLR.29-144-H6; made in house; host or cells: E. coli
Procedure: Protein production and characterization and peptides. Plasmid construction, mutagenesis, protein expression, purification, and the AlphaScreen® peptide binding assay (Perkin-Elmer, Waltham, Mass.) were performed as previously described with minor modifications to the AlphaScreen® assay (Hill and Pioszak, Protein expression and purification (2013) 88:107-113; and Moad and Pioszak, Protein Sci. (2013) 22:1775-85). Synthetic peptides were from RS Synthesis (Louisville, Ky.), Bachem (Bubendorf, Switzerland), or were synthesized in-house. […]
FIG. 1 depicts in (B) binding of an AM C-terminal peptide, AM(37-52)NH2, and the two variant AM C-terminal peptides to purified AM1 receptor extracellular domain complex (CLR:RAMP2). The ability of the indicated peptides to displace a Biotin-CGRP probe (50 nM) from purified MBP-RAMP1 ECD-(GS)5-CTR ECD-H6 fusion protein (5 nM) or a Biotin-AM probe (25 nM) from purified MBP-RAMP2 ECD [L106R]-(GS)5-[…] ECD-H6 fusion protein (5 nM) was assessed by AlphaLISA® luminescent peptide binding assay (Perkin-Elmer, Waltham, Mass.). […] The reactions were incubated for 5 hours at room temperature to reach equilibrium, and the luminescence was measured in white 384-well plates using a BMG LABTECH's POLARstar Omega plate reader (Ortenberg, Germany). […]

[3] = target: T4, AMY1 receptor extracellular domain complex; purified MBP-RAMP1 ECD-(GS)5-CTR ECD-H6 fusion protein (Homo sapiens, UniProt O60894+P30988); test: AlphaLISA luminescent peptide binding assay, AMY1 receptor ECD complex; conditions: displacement of Biotin-AC413 probe (100 nM), fusion protein 200 nM
T4 construct: purified MBP-RAMP1 ECD-(GS)5-CTR ECD-H6 fusion protein (200 nM); made in house; host or cells: HEK293T
Procedure: A single representative experiment conducted with duplicate samples is shown. Error bars are S.E.M. The ability of the indicated peptides to displace a Biotin-AC413 probe (100 nM) from purified MBP-RAMP1 ECD-(GS)5-CTR ECD-H6 fusion protein (200 nM) was assessed by AlphaLISA® luminescent peptide binding assay (Perkin-Elmer, Waltham, Mass.) as described in Lee et al. (J Biol. Chem (2016) 291:8686-8700). The reactions were incubated for 5 hours at room temperature to reach equilibrium, and the luminescence was measured in white 384-well plates using a BMG LABTECH's POLARstar® Omega plate reader (Ortenberg, Germany). The reaction buffer was 50 mM MOPS, pH 7.4, 150 mM NaCl, 7 mg/ml fatty acid-free BSA and the streptavidin-coated donor beads and MBP-antibody coated acceptor beads were at 15 μg/ml each. IC50 values were calculated using nonlinear regression fitting of the competition curves to a three-parameter, one-site competitive binding equation in GraphPad Prism 5.0 (GraphPad Software, San Diego Calif.).

[4] = target: T5, full-length CGRP (RAMP1:CLR) receptor transiently expressed in COS-7 cells (Homo sapiens, UniProt O60894+Q16602); test: Antagonism of CGRP-activated cAMP signaling in COS-7 cells; assay type: cell-based
T5 construct: Plasmids for expression of tagged full-length CLR and RAMP1 or RAMP2 receptors in mammalian cells were previously described; expressed in transfected cells; host or cells: COS-7
Procedure: (§2) Cell-based assays. Transfection of COS-7 cells, cAMP assay, ELISA for cell surface expression, and data analysis were as previously described (Barwell et al., Peptides (2010) 31:170-176; Watkins et al., Br J Pharmacol (2014) 171:772-788).
(§3) A single representative experiment conducted with duplicate samples is shown. Error bars are S.E.M. The experiments were performed as described in Lee et al. (J Biol. Chem (2016) 291:8686-8700). […] (B) depicts antagonism of AM-activated cAMP signaling at the AM1 receptor.
(§4) Forty-eight hours after transfection, the cells were pre-incubated for 30 minutes in the absence or presence of 500 nM AM(37-52)NH2 [S45W/K46L/Q50W/Y52F], and then stimulated for 15 minutes with increasing concentrations of agonist peptide in the absence or presence of 500 nM antagonist. The cells were lysed, and cAMP was quantitated using a LANCE TR-FRET cAMP kit (Perkin-Elmer Waltham, Mass.).

[5] = target: T6, full-length AM1 (RAMP2:CLR) receptor transiently expressed in COS-7 cells (Homo sapiens, UniProt O60895+Q16602); test: Antagonism of AM-activated cAMP signaling in COS-7 cells; assay type: cell-based; conditions: 500 nM antagonist
T6 construct: Plasmids for expression of tagged full-length CLR and RAMP1 or RAMP2 receptors in mammalian cells were previously described; expressed in transfected cells; host or cells: COS-7
Procedure: as §2, §3, §4

## CC(C)[C@H](NC(=O)[C@H](CC(=O)O)NC(=O)[C@@H](NC(=O)[C@@H]1CCCN1C(=O)[C@@H](NC(=O)[C@@H](N)Cc1ccccc1)C(C)C)[C@@H](C)O)C(=O)NCC(=O)N1CCC[C@H]1C(=O)N[C@@H](Cc1ccccc1)C(=O)N[C@@H](C)C(=O)N[C@@H](Cc1ccccc1)C(N)=O [CGRPmut [N31D/S34P/K35F]]
[1]
  IC50: 29 nM

## DKDNVAPRSKISPWGY-NH2 [Peptide Q50W]
[2]
  Receptor Selectivity (in words): Non-selective
  Ki: 501 nM
RAMP2-CLR ECD; competition assays, relative to AM(37-52)NH2
  fold increased affinity for RAMP2-CLR ECD: ~100 fold

## DKDNVAPRWLISPWGF-NH2 [S45W/K46L/Q50W/Y52F]
[2]
  Receptor Selectivity, fold for CGRP: 2131-fold for CGRP
  Ki: 1.91 nM
[2]; listed as AM(37-52)NH2 [S45W/K46L/Q50W/Y52F]
  Receptor Selectivity, fold for CGRP: > 2000 fold
[3]
  IC50: 16000 nM
[4]
  Kb: 10.5 nM
[4]; 500 nM antagonist, COS-7 cells, Gaddum/Schild EC50 shift, slopes constrained to 1
  pA2, antagonism of CGRP-activated cAMP signaling at the CGRP receptor: ~8
[4]; COS-7 cells
  affinity for the intact CGRP receptor suggested by pA2: ~10 nM
[5]
  antagonism of the AM1 receptor (cAMP): did not antagonize the AM1 receptor

## FVPTDVGPWSF-NH2 [N31D/S34P/K35W/A36S]
[2]
  Receptor Selectivity, fold for CGRP: 1856-fold for CGRP
  Ki: 1.32 nM
[3]
  IC50: 260 nM

## DKDNVAPRSKISPQGY-NH2 [WT, reference compound]
[2]
  Receptor Selectivity (in words): AM1 over CGRP
  Ki: > 100000 nM
RAMP2-CLR ECD; read-out: IC50 in AlphaLISA or AlphaScreen competition assays, RAMP2-CLR ECD
  IC50: 5000 to 15000 nM
